Reference: publication PMC12037037 (Proceedings of the National Academy of Sciences of the …, 2025)

How the values were obtained:
[1] = target: 5-HT2A receptor membrane preparations obtained from PSYLI2 cells (Homo sapiens, UniProt P28223); assay: Ligand binding kinetics with [3H]-LSD on PSYLI2 membrane preparations; details: kinetics of competition binding vs [3H]-LSD
Description: Ligand binding kinetics at the 5-HT2AR.
Data represent the mean ± SEM of 2–3 biological replicates.
Data represent the mean ± SEM of 2–4 biological replicates.
Binding buffer consisted of 50 mM Tris HCl, 10 mM MgCl2, 0.1 mM EDTA disodium dihydrate in autoclaved
deionized water. The solution was adjusted to pH 7.4 with 10 M NaOH(aq) and stored at 4 °C. This solution was used in
membrane preparation generation as well as competition and kinetics assays.
free, see 15) were grown in 15-cm plates with Dulbecco’s Modified Eagle Media (DMEM) containing 10% fetal bovine serum and 1% penicillin/streptomycin. When the cells were >90% confluent, the media was removed, and the cells were washed
with Dulbecco’s Phosphate Buffered Saline (DPBS) (15 mL). Next, DMEM (15 mL) lacking fetal bovine serum and
penicillin/streptomycin was added, and the cells were serum-starved for 4–12 hours. Roughly 10 mL of the DMEM was
removed, leaving ~5 mL of media in the plates before placing them on ice. Once on ice, the plates were scraped and the
contents were transferred to a pre-chilled 50 mL Falcon tube and then centrifuged (2,000 g, 10 min, 4 °C). The supernatant […]
of 0.25 mL to use for quantification of protein concentration via a Bradford assay with a Coomassie protein assay reagent. […]
For association binding experiments, total and nonspecific binding was determined by adding binding buffer (2.5X solution, […]

[2] = tested on: Thy1-EGFP mice, layer 2/3 of the mPFC; assay: In vivo spinogenesis after chronic corticosterone administration; details: chronic CORT (20 mg/kg IP daily, 20 d) + VEH; GH VEH 12.17 ± 0.5278; mean ± SEM
Description: In Vivo Spinogenesis after chronic corticosterone administration. Male and female Thy1-EGFP mice were given 1 week to acclimate to the new vivarium, then transferred to new cages (individually housed). Once individually housed, the mice were administered corticosterone (20 mg/kg; IP) in DMSO (2 mL/kg) or gently handled daily for 20 days. On day 21, mice were treated with VEH (saline) or (+)-JRT (1 mg/kg; IP). After 24 h, mice were anesthetized with isoflurane and transcardially perfused with paraformaldehyde (PFA, 4% in PBS, 7.4 pH). After extraction of the brains, samples were fixed in 4% PFA at 4° C overnight. The brains were cryo-protected by immersion in a 15% sucrose solution (15% sucrose in PBS w/v) overnight. Next, samples were placed in 30% sucrose solution (30% sucrose in PBS w/v) for at least 1 day. Samples were then embedded in optimal cutting temperature compound (OCT), sliced into 100 µm coronal sections using a cryostat, and mounted on slides which were left in the dark overnight to dry. Coverslips were mounted onto microscope slides using ProLong Gold. Slides were imaged on a Nikon HCA Spinning Disc confocal microscope equipped with a 100x/NA 1.45 oil objective. Images of dendrites and dendritic spines within layer 2/3 of the mPFC were captured and manually counted by a trained experimenter blinded to treatment conditions.

C57BL/6J mice = assay: Sucrose preference test (SPT) after chronic CORT; format: in vivo; details: after 20 d CORT 20 mg/kg IP; baseline 0.7980 ± 0.03533
Description: remained housed in groups of three for the remainder of the study. All rats were acclimated to the colony room for up to one week prior to dosing. During the period of acclimation, rats were examined and handled daily, and weighed to assure adequate health and suitability. The room temperature was maintained between 20 °C and 23 °C with a relative humidity of 30%–70%. Lab Rodent Diet 5001 (W.F. Fisher, Cat # 11015) and water were provided ad libitum. Animals were randomly assigned across treatment groups. All testing was performed during the light phase of the light/dark cycle. Behavioral testing was conducted according to established protocols approved by the IACUC committee and PGI Standard Operation Procedures (SOP). […] All animals were carefully monitored to ensure their safety in the swim test and any animal unable to maintain a posture with its nose above water was immediately removed from the water and not used further in the study. […] This test lasted for 5 min and was video recorded. A blinded experimenter manually scored the videos for swimming, climbing, and immobility behavior. Scoring of the forced swim test was performed by trained technicians using a time sampling technique in which the animal in the video recorded test was viewed every 5 seconds and the behavior observed was noted (e.g., immobile, swimming, or climbing). […]

[3] = tested on: E18 rat embryonic cortical neurons (DIV18-19); assay: Spinogenesis assay using cultured rat cortical neurons; format: cell-based; details: compound 1 μM
[4] = target: 5-HT1B (h) (antagonist radioligand); design: method as in ref Pharmacological Differentiation and Characterization of 5-HT1A, 5-HT1B, and 5-HT1C Binding Sites in Rat Frontal Cortex; details: read-out: Ki of LSD; radioligand 5-HT; Rat cortex; ref Pharmacological Differentiation and Characterization of 5-HT1A, 5-HT1B, and 5-HT1C Binding Sites in Rat Frontal Cortex; cited from earlier work
[5] = target: 5-HT2B (h) (agonist radioligand); details: read-out: Ki of LSD; radioligand 5-HT; Human cloned; ref Pharmacological characterisation of the agonist radioligand binding site of 5-HT(2A), 5-HT(2B) and 5-HT(2C) receptors; cited from earlier work
[6] = target: 5-HT5a (h) (agonist radioligand); details: read-out: Ki of LSD, Rat cloned, ref Lysergamides of isomeric 2,4-dimethylazetidines map the binding orientation of the diethylamide moiety in the potent hallucinogenic agent N,N-diethyllysergamide (LSD); cited from earlier work
[7] = target: 5-HT7 (h) (agonist radioligand); design: method as in Molecular biology of 5-HT receptors; details: read-out: Ki of LSD; radioligand 5-HT; Rat cloned; ref Molecular biology of 5-HT receptors; cited from earlier work
[8] = target: alpha 1 (non-selective) (antagonist radioligand); design: method as in ref Receptor interaction profiles of novel N-2-methoxybenzyl (NBOMe) derivatives of 2,5-dimethoxy-substituted phenethylamines (2C drugs); details: read-out: Ki of LSD; radioligand prazosin; Human cloned; ref Receptor interaction profiles of novel N-2-methoxybenzyl (NBOMe) derivatives of 2,5-dimethoxy-substituted phenethylamines (2C drugs); cited from earlier work
[9] = target: alpha 2 (non-selective) (antagonist radioligand); design: method as in ref Receptor interaction profiles of novel N-2-methoxybenzyl (NBOMe) derivatives of 2,5-dimethoxy-substituted phenethylamines (2C drugs); details: read-out: Ki of LSD; radioligand Rauwolscine; Human cloned; ref Receptor interaction profiles of novel N-2-methoxybenzyl (NBOMe) derivatives of 2,5-dimethoxy-substituted phenethylamines (2C drugs); cited from earlier work
[10] = target: D1 (h) (antagonist radioligand); design: method as in ref Mefloquine and psychotomimetics share neurotransmitter receptor and transporter interactions in vitro; details: read-out: Ki of LSD; radioligand SCH 23390; Human cloned; ref Mefloquine and psychotomimetics share neurotransmitter receptor and transporter interactions in vitro; cited from earlier work
[11] = target: D2S (h) (antagonist radioligand); design: method as in ref Mefloquine and psychotomimetics share neurotransmitter receptor and transporter interactions in vitro; details: read-out: Ki of LSD; radioligand [3H]YM-09151-2; Human cloned; ref Mefloquine and psychotomimetics share neurotransmitter receptor and transporter interactions in vitro; cited from earlier work
[12] = target: beta 1 (h) (agonist radioligand); details: read-out: Ki of LSD; radioligand 125I-pindolol; Rat cloned; ref Lysergamides of isomeric 2,4-dimethylazetidines map the binding orientation of the diethylamide moiety in the potent hallucinogenic agent N,N-diethyllysergamide (LSD); cited from earlier work

Sequence of 5-HT2A receptor membrane preparations obtained from PSYLI2 cells (P28223 1-263 limits assumed): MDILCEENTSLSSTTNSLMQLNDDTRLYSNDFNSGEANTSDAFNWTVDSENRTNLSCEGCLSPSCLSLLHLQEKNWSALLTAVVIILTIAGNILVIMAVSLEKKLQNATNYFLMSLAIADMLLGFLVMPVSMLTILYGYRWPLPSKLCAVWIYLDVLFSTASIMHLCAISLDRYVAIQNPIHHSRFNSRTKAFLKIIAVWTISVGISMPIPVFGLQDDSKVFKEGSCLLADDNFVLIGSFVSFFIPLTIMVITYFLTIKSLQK
Sequence of 5-HT2A receptor membrane preparations obtained from PSYLI2 cells (P28223 316-471 limits assumed): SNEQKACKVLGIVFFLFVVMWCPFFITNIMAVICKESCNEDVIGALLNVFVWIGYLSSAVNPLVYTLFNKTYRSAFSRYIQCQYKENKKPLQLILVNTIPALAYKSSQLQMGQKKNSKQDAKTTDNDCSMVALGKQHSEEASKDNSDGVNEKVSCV

CCN(CC)CCc1c[nH]c2cc(F)ccc12 [6-F-DET, 6-fluoro-N,N-diethyltryptamine, reference compound]
Dissociation rate from the 5-HT2A receptor, fold faster than LSD [1]: ~100 fold

C[C@]12C[C@H](O)[C@H]3[C@@H](CCC4=CC(=O)CC[C@@]43C)[C@@H]1CC[C@@H]2C(=O)CO [CORT, corticosterone, reference compound]
Dendritic spine density, layer 2/3 mPFC (Table S1, matches Fig. 4N) [2]: 8.570 ± 0.4350 | Sucrose preference post-CORT (Figure 6D) (C57BL/6J mice): 0.5563 ± 0.08424

CCN(CC)C(=O)[C@@H]1C=C2c3cccc4[nH]cc(c34)C[C@H]2N(C)C1 [LSD, lysergic acid diethylamide]
Effect of ketanserin (10 μM) pretreatment on compound-induced dendritic spine density [3]: blocks | Ki [4]: 170 nM | Ki [5]: 0.977 nM | Ki [6]: 9 nM | Ki [7]: 200 nM | Ki [8]: 670 nM | Ki [9]: 12 nM | Ki [10]: 273 nM | Ki [11]: 38 nM | Ki [12]: 140 nM
